The record followed here is patent US12685735B2 (Foghorn Therapeutics Inc., priority 2020, dated 2026).

In one experiment the target is BRG-1 (Homo sapiens, UniProt P51532). Briefly: ATPase catalytic activity assay of BRG-1 (ADP-Glo). Format: biochemical. The following applies: ATPase catalytic activity, ADP-Glo; for IC50: read-out: BRG1 IC50 (μM)*; for Emax: read-out: BRG1 Max % Inhibition. In outline: (§1)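 Luminescent ADP-Glo readout of ADP generated by ATP hydrolysis. Post-reaction: ATP depletion reagent, RT 40 min; detection reagent converting ADP→ATP, RT 60 min; luminescence read.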
BRG-1, sequence (P51532 whole entry): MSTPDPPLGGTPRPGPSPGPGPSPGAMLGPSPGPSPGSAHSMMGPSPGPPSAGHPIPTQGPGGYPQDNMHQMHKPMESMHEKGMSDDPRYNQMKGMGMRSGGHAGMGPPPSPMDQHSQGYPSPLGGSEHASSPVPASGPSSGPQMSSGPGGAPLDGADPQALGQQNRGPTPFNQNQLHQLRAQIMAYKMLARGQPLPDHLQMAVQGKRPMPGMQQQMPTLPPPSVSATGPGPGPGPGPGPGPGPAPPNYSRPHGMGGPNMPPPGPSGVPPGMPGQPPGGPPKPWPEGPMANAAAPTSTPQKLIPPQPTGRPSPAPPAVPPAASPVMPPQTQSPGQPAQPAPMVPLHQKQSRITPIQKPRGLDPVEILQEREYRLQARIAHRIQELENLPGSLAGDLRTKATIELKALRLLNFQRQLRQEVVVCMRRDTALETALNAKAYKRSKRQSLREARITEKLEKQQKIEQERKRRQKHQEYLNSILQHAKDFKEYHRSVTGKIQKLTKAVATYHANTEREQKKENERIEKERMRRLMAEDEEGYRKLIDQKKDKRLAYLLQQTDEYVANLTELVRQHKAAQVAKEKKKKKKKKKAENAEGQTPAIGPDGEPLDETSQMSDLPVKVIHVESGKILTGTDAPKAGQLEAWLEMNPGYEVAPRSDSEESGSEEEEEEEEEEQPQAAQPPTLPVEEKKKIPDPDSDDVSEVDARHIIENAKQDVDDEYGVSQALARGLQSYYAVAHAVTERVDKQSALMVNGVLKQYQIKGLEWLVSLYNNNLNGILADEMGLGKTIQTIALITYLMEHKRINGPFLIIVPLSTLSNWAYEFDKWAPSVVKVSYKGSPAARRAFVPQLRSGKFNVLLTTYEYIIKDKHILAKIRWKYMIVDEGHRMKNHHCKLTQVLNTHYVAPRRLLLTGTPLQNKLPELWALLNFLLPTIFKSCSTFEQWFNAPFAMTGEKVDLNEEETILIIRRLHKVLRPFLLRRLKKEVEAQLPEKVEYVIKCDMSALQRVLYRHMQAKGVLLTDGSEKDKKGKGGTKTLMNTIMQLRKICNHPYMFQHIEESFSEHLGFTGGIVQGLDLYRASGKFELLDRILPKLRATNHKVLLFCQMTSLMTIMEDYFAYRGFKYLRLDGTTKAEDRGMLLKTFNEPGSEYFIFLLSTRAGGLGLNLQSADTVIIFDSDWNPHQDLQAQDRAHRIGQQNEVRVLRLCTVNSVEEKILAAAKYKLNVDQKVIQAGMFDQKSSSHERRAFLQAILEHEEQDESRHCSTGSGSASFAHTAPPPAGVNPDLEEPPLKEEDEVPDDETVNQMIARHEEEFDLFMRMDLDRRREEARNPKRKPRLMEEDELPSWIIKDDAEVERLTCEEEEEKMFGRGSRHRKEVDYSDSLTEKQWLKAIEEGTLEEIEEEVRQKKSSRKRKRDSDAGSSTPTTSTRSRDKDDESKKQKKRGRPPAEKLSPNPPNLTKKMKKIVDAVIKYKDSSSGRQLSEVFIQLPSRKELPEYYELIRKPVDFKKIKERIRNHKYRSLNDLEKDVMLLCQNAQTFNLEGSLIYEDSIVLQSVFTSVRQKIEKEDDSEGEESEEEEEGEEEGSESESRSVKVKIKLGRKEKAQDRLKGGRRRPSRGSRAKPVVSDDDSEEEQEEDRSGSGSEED

Another experiment has as its target BRM (Homo sapiens, UniProt P51531). Put plainly: ATPase catalytic activity assay of BRM (ADP-Glo). The experiment is classed as biochemical. To be noted: for IC50: read-out: BRM IC50 (μM)*. In outline: as §1

BRM, sequence (P51531 whole entry): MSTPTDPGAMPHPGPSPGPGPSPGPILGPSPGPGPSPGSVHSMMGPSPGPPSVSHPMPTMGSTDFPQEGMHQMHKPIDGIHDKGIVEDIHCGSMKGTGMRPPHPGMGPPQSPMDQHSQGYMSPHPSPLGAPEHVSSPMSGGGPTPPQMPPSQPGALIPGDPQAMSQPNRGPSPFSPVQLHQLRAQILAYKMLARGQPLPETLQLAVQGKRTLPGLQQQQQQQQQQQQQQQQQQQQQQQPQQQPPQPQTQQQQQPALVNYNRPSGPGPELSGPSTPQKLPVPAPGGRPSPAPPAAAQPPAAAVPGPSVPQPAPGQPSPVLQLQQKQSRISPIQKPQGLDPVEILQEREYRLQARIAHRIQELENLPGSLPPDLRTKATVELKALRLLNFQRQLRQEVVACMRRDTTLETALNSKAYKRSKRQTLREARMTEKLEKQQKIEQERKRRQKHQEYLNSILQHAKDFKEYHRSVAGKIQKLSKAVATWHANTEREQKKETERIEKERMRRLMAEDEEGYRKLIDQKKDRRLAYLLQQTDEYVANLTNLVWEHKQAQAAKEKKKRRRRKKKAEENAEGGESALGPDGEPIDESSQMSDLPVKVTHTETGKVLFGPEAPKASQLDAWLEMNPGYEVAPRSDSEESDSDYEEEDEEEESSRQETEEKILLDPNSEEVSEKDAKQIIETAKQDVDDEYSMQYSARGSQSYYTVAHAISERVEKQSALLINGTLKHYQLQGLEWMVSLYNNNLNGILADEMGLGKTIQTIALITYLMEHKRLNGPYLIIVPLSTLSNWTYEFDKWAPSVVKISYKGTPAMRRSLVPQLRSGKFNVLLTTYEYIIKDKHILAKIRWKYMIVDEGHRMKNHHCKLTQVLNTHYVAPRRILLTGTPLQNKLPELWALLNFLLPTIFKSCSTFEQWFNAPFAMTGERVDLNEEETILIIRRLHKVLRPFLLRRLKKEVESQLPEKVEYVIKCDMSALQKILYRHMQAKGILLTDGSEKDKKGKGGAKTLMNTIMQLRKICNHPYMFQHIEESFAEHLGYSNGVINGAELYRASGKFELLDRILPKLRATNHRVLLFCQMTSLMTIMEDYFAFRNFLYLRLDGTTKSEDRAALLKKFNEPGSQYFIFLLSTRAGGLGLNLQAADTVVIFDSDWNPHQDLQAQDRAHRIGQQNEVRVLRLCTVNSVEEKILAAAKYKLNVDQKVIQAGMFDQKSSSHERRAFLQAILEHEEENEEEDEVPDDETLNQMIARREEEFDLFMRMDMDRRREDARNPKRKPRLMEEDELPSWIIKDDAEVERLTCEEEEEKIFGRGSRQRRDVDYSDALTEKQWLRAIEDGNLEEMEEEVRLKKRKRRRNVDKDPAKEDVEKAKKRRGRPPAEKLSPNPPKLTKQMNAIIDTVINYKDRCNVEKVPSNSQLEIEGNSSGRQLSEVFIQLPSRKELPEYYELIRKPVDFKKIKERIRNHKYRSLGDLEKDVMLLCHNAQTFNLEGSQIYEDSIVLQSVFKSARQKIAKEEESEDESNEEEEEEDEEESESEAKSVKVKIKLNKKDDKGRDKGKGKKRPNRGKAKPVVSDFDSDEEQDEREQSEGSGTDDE

As to `C[C@@H]1CN(c2cccc(-c3csc(NC(=O)CNC(=O)c4cccc([C@]5(C(F)F)CCCO5)c4)n3)c2)C[C@H](C)O1` [Compound 291, 3-((S)-2-(difluoromethyl)tetrahydrofuran-2-yl)-N-(2-((4-(3-((cis)-2,6-dimethylmorpholino)phenyl)thiazol-2-yl)amino)-2-oxoethyl)benzamide], at BRG-1, the IC50 was > 5 µM and the Emax is > 90%. In addition, at BRM, the “BRM Max % Inhibition” value is given as >90% and the IC50 lay within 0.1 to 1 µM.
`C[C@@]1(C#N)COCc2ccc(C(=O)NCC(=O)Nc3nc(-c4cccc([C@@]56CCOC[C@@H]5C6)n4)cs3)cc21` [Compound 292, (R)-N-(2-((4-(6-((1R,6S)-3-oxabicyclo[4.1.0]heptan-6-yl)pyridin-2-yl)thiazol-2-yl)amino)-2-oxoethyl)-4-cyano-4-methylisochromane-6-carboxamide]: at BRG-1, the IC50 fell in the range of 0.1 to 1 µM and the Emax is > 95%. Also, at BRM, the “BRM Max % Inhibition” value is on record as >95% and the IC50 was < 0.1 µM.
As to `C[C@@]1(C#N)COCc2ccc(C(=O)NCC(=O)Nc3nc(-c4cccc([C@]56CCOC[C@H]5C6)n4)cs3)cc21` [Compound 293, (R)-N-(2-((4-(6-((1S,6R)-3-oxabicyclo[4.1.0]heptan-6-yl)pyridin-2-yl)thiazol-2-yl)amino)-2-oxoethyl)-4-cyano-4-methylisochromane-6-carboxamide], on BRG-1, the IC50 is 0.1 to 1 µM and the Emax was > 95%. At BRM, the “BRM Max % Inhibition” value was >95% and the IC50 was < 0.1 µM.
In the same order, the values of `C[C@@]1(C#N)COCc2ccc(C(=O)NCC(=O)Nc3nc(-c4cccc([C@@]56CCOC[C@@H]5C6)c4)cs3)cc21` [Compound 294, (R)-N-(2-((4-(3-((1R,6S)-3-oxabicyclo[4.1.0]heptan-6-yl)phenyl)thiazol-2-yl)amino)-2-oxoethyl)-4-cyano-4-methylisochromane-6-carboxamide] are 0.1 to 1 µM, > 95%, >95% and < 0.1 µM.
As for `C[C@@]1(C#N)COCc2ccc(C(=O)NCC(=O)Nc3nc(-c4cccc([C@]56CCOC[C@H]5C6)c4)cs3)cc21` [Compound 295, (R)-N-(2-((4-(3-((1S,6R)-3-oxabicyclo[4.1.0]heptan-6-yl)phenyl)thiazol-2-yl)amino)-2-oxoethyl)-4-cyano-4-methylisochromane-6-carboxamide], at BRG-1, the half-maximal inhibitory concentration (IC50) lay in the range of 0.1 to 1 µM and the Emax is > 95%. Also, at BRM, the “BRM Max % Inhibition” value is >95% and the IC50 was < 0.1 µM.
The like results for `C[C@@H]1CN(c2cccc(-c3csc(NC(=O)CNC(=O)c4ccc5c(c4)CCCOC5)n3)n2)C[C@H](C)O1` [Compound 296, N-(2-((4-(6-((cis)-2,6-dimethylmorpholino)pyridin-2-yl)thiazol-2-yl)amino)-2-oxoethyl)-1,3,4,5-tetrahydrobenzo[c]oxepine-7-carboxamide] were, in that order, < 0.1 µM, > 95%, >95% and < 0.1 µM.
In the same order, the values of `C[C@@]1(F)COCc2ccc(C(=O)NCC(=O)Nc3nc(C4CCOCC4)cs3)cc21` [Compound 297, (S)-4-fluoro-4-methyl-N-(2-oxo-2-((4-(tetrahydro-2H-pyran-4-yl)thiazol-2-yl)amino)ethyl)isochromane-6-carboxamide] are 1 to 5 µM, > 85%, >95% and 0.1 to 1 µM.
In the same order, the values of `C[C@@H]1CN(c2cccc(-c3csc(NC(=O)CNC(=O)c4ccc5c(c4)C4(COC5)COC4)n3)n2)C[C@H](C)O1` [Compound 300, N-(2-((4-(6-((cis)-2,6-dimethylmorpholino)pyridin-2-yl)thiazol-2-yl)amino)-2-oxoethyl)spiro[isochromane-4,3′-oxetane]-6-carboxamide] are 0.1 to 1 µM, > 95%, >95% and < 0.1 µM.
As for `C[C@@]1(F)COCc2ccc(C(=O)NCC(=O)Nc3nc(-c4ccccc4)cs3)cc21` [Compound 303, (S)-4-fluoro-4-methyl-N-(2-oxo-2-((4-phenylthiazol-2-yl)amino)ethyl)isochromane-6-carboxamide], on BRG-1, the IC50 is 0.1 to 1 µM and the Emax was > 95%. For the same molecule, on BRM, the “BRM Max % Inhibition” value is on record as >95% and the IC50 is < 0.1 µM.
As to `C[C@@H]1CN(c2cccc(-c3csc(NC(=O)CNC(=O)c4cccc(C5(F)COCC5O)c4)n3)n2)C[C@H](C)O1` (stereo partly drawn) [Compound 304, N-(2-((4-(6-((cis)-2,6-dimethylmorpholino)pyridin-2-yl)thiazol-2-yl)amino)-2-oxoethyl)-3-(3-fluoro-4-hydroxytetrahydrofuran-3-yl)benzamide], on BRG-1, the IC50 lay in the range of 1 to 5 µM and the Emax is > 95%. Moreover, at BRM, the “BRM Max % Inhibition” value is >95% and the IC50 is 0.1 to 1 µM.
In the same order, the values of `C[C@@]1(C#N)COCc2ccc(C(=O)NCC(=O)Nc3nc(-c4cccc(C56CCOCC5C6)c4)cs3)cc21` (stereo partly drawn) [Compound 305, (R)-N-(2-((4-(3-(3-oxabicyclo[4.1.0]heptan-6-yl)phenyl)thiazol-2-yl)amino)-2-oxoethyl)-4-cyano-4-methylisochromane-6-carboxamide] are 0.1 to 1 µM, > 95%, >95% and < 0.1 µM.
In the same order, the values of `C[C@@H]1CN(c2cccc(-c3csc(NC(=O)CNC(=O)c4cccc(C5(C(F)F)CCCO5)c4)n3)c2)C[C@H](C)O1` (stereo partly drawn) [Compound 306, 3-(2-(difluoromethyl)tetrahydrofuran-2-yl)-N-(2-((4-(3-((cis)-2,6-dimethylmorpholino)phenyl)thiazol-2-yl)amino)-2-oxoethyl)benzamide] are 1 to 5 µM, > 95%, >95% and 0.1 to 1 µM.
Take `COc1cccc(-c2csc(NC(=O)[C@H](C)NC(=O)c3ccc4c(c3)[C@](C)(F)COC4)n2)c1` [Compound 309, (S)-4-fluoro-N-((S)-1-((4-(3-methoxyphenyl)thiazol-2-yl)amino)-1-oxopropan-2-yl)-4-methylisochromane-6-carboxamide]: on BRG-1, the IC50 lay within 0.1 to 1 µM and the Emax is > 95%. Moreover, at BRM, the “BRM Max % Inhibition” value is on record as >95% and the IC50 is < 0.1 µM.
The like results for `C[C@@H]1CN(c2cccc(-c3csc(NC(=O)CNC(=O)c4ccc5c(c4)C(C)(C#N)CNC5)n3)c2)C[C@H](C)O1` (stereo partly drawn) [Compound 310, 4-cyano-N-(2-((4-(3-((cis)-2,6-dimethylmorpholino)phenyl)thiazol-2-yl)amino)-2-oxoethyl)-4-methyl-1,2,3,4-tetrahydroisoquinoline-6-carboxamide] were, in that order, 0.1 to 1 µM, > 95%, >95% and < 0.1 µM.
As to `COc1cccc(-c2csc(NC(=O)CNC(=O)c3ccc4c(c3)C(C)(C#N)CNC4)n2)c1` (centres unmarked) [Compound 311, 4-cyano-N-(2-((4-(3-methoxyphenyl)thiazol-2-yl)amino)-2-oxoethyl)-4-methyl-1,2,3,4-tetrahydroisoquinoline-6-carboxamide], at BRG-1, the IC50 was 1 to 5 µM and the Emax was > 95%. Also, on BRM, the “BRM Max % Inhibition” value is given as >95% and the concentration for half-maximal inhibition (IC50) was in the range of 0.1 to 1 µM.
In the case of `COc1cccc(-c2csc(NC(=O)CNC(=O)c3ccc4c(c3)[C@](C)(F)COC4)n2)c1` [Compound 312, (S)-4-fluoro-N-(2-((4-(3-methoxyphenyl)thiazol-2-yl)amino)-2-oxoethyl)-4-methylisochromane-6-carboxamide], at BRG-1, the IC50 was 0.1 to 1 µM and the Emax was > 95%. Besides, on BRM, the “BRM Max % Inhibition” value was >95% and the IC50 was < 0.1 µM.
In the same order, the values of `COc1cccc(-c2csc(NC(=O)CNC(=O)c3ccc4c(c3)C(C)(O)COC4)n2)c1` (centres unmarked) [Compound 313, 4-hydroxy-N-(2-((4-(3-methoxyphenyl)thiazol-2-yl)amino)-2-oxoethyl)-4-methylisochromane-6-carboxamide] are 1 to 5 µM, > 90%, >90% and 0.1 to 1 µM.
Consider `C[C@@]1(F)COCc2ccc(C(=O)NCC(=O)Nc3nc(-c4cc(F)cc(C#N)c4)cs3)cc21` [Compound 314, (S)-N-(2-((4-(3-cyano-5-fluorophenyl)thiazol-2-yl)amino)-2-oxoethyl)-4-fluoro-4-methylisochromane-6-carboxamide], for which, at BRG-1, the half-inhibitory concentration (IC50) was in the range of 0.1 to 1 µM and the Emax was > 90%. Moreover, on BRM, the “BRM Max % Inhibition” value is >90% and the IC50 is < 0.1 µM.
Regarding `C[C@@]1(F)COCc2ccc(C(=O)NCC(=O)Nc3nc(-c4cccc(C#N)c4)cs3)cc21` [Compound 315, (S)-N-(2-((4-(3-cyanophenyl)thiazol-2-yl)amino)-2-oxoethyl)-4-fluoro-4-methylisochromane-6-carboxamide], at BRG-1, the IC50 was in the range of 0.1 to 1 µM and the Emax is > 95%. At BRM, the “BRM Max % Inhibition” value is listed as >95% and the IC50 was < 0.1 µM.
Turning to `C[C@@]1(C#N)COCc2ccc(C(=O)NCC(=O)Nc3nc(-c4cc(F)cc(C5CCO5)c4)cs3)cc21` (stereo partly drawn) [Compound 316, (R)-4-cyano-N-(2-((4-(3-fluoro-5-(oxetan-2-yl)phenyl)thiazol-2-yl)amino)-2-oxoethyl)-4-methylisochromane-6-carboxamide], on BRG-1, the IC50 was < 0.1 µM and the Emax is > 95%. In addition, on BRM, the “BRM Max % Inhibition” value is on record as >95% and the IC50 was < 0.1 µM.
